{"source": "patent US20040170685A1", "about": "“Bioactive stents and methods for use thereof” (MediVas, LLC, priority 2003, published 2004)", "system": "human aortic smooth muscle cells (SMC)", "experiment": "Adhesion and proliferation of smooth muscle cells on gelatin coated culture plates, microscopic observation", "format": "cell-based", "conditions": "bioagent 100? m", "source_text": "This Example illustrates the effect of different concentrations of bioactive agents on adhesion and proliferation of epithelial cells (EC) and smooth muscle cells (SMC) on gelatin coated surfaces.\nHuman Coronary artery endothelial cells (EC) plated on gelatin coated culture plates were co-cultured with EC special media containing one of the bioactive agents shown in Table 1 below in the various concentrations shown.\nTwenty four hours later the cells were observed microscopically, stained with trypan blue and counted. The results of the microscopic observation of cell morphology and confluency of culturing the EC in the presence of the Bioagents tested are summarized in Table 2 below. The effect of the various bioagents on EC adhesion and proliferation is shown graphically in FIG. 2.\nEffect of different concentrations of the bioagents listed above in Table 1 was also tested using human aortic smooth muscle cells (SMC) under similar conditions as described for EC. The results of the bioagents on adhesion and proliferation of SMC plated on gelatin coated culture plates are summarized in Table 3 below and shown graphically in FIG. 3.", "data": [{"smiles": "CCCCCCCCCCCCC/C=C/[C@@H](O)[C@@H](N)COP(=O)(O)O", "note": "[S1P, Sphingosine 1-Phosphate]", "values": [{"measurement": "Microscopic observation for the SMC morphology and Confluency", "result": 100, "unit": "% cells died"}]}]}
